The test in a line: Blocker Index (BI), expert graders, malodorous fabric swatch treated with test material. An excerpt:
Blocker materials suitable for use in consumer products of the present invention are chosen for their ability to decrease malodor, while not interfering with perception of a fragrance. Material selection is done by assigning two indices to a test sample material from two reference scales in order to rank odor strengths. The two reference scales are the Fragrance Fidelity Index (FFI) scale and the Blocker Index (BI) scale. The FFI ranks the ability of the test sample material to impart a perceivable odor which could cause interference when combined with another fragrance and the BI ranks the ability of the test sample material to reduce malodor perception. The two methods for assigning the indices to a test sample on the FFI and the BI reference scales are given below.
The first step in the method for assigning a BI to a test sample material on the BI reference scale is to create the BI reference swatches. […] Fabric swatches for this test are white knit polycotton (4 inch×4 inch) swatches from EMC ordered as PC 50/50. The supplier is instructed to strip the swatches first, stripping involves washing twice with a fragrance-free detergent and rinsing three times.
The BI scale contains one clean swatch with no malodor applied. […] These solutions are pipetted to the middle of the swatches. […] After drying for 30 minutes in a vented hood, the swatches are wrapped in aluminum foil to prevent odor contamination to the treated swatch. A clean untreated swatch is also included as the lowest anchor point of reference for malodor strength on the BI scale. The BI reference scale swatches should be used within 0.5 to 12 hours and discarded after 12 hours. The swatches are used as scale anchor points when graders evaluate a test sample(s) and are assigned a Blocker Index (BI) as show in Table 12.
The perfumer/expert grader is asked to rank order swatches according to a scale between 0 and 3.
The reference swatches represent the 0, 1, 2, and 3 BIs on the BI reference scale, Table 12. The expert grader should familiarizes him/herself with the strength of the odor on the BI reference swatches by sniffing each one starting at 0 (the lowest odor strength) and ending at 3 (the highest odor strength). This should be done prior to evaluating the swatch treated with the test material.
To evaluate the BI, the test material is applied to a malodorous swatch to determine how well the test material blocks the malodor. […] After drying the malodorous swatch a known concentration of test material solution, between 1 ppm and 100 ppm is pipetted onto the malodorous swatch. […] It is sometimes necessary to evaluate several levels of the test material between about 1 and about 100 ppm to determine the BI.
At least two perfumers/expert graders are used to assign the BI to the test sample. […] The test sample swatch is assigned a BI at or between numbers on the BI in table.

[1] abbreviates: Conc 10 ppm test material on isovaleric acid swatch.
The mark [2] stands for this setting: Conc 50 ppm test material on isovaleric acid swatch.

`CC1CCC2(C(C)C)CC(C)OC2C1` (stereo not drawn) [4,8-dimethyl-1-(methylethyl)-7-oxybiciclo[4.3.0]nonane]: the BI reads like this: under setting [1], 2.0; under setting [2], 2.2.

Regarding `CCC(=O)OC1CC2C3C=CCC3C1C2(C)C` (stereo not drawn) [8,8-dimethyl-3a,4,5,6,7,7a-hexahydro-1H-4,7-methanoinden-6-yl propionate], the BI came to 1.5 under setting [1] and 2.2 under setting [2].

On to `CC1(C)CCc2ccc(CCC=O)cc21` [Material 261, 3-(3,3-dimethyl-2,3-dihydro-1H-inden-5-yl)propanal], for which the BI came to 1.5 (Conc 10 ppm test material on isovaleric acid swatch, listed as 1H-Indene-5-propanal, 2,3-dihydro-3 ,3-dimethyl-) and 2.7 (Conc 50 ppm test material on isovaleric acid swatch, listed as 1H-Indene-5-propanal, 2,3-dihydro-3 ,3-dimethyl-).

The record behind these values is patent publication US20170137753A1, “DELIVERY SYSTEMS COMPRISING MALODOR REDUCTION COMPOSITIONS” (The Procter & Gamble Company, priority 2014, published 2017).
